In ChEMBL document CHEMBL1201861, “Genomics of Drug Sensitity in Cancer screening data, Wellcome Trust Sanger Institute”:

Experiments:
Test in all cases: cells
[1] = test system: KYSE-520 cell line; type: functional, cell-based, Homo sapiens; settings: Homo sapiens, KYSE-520;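 note: growth inhibition of human KYSE-520 cells, read out with a viability assay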
Description: SANGER: Inhibition of human KYSE-520 cell growth in a cell viability assay.

[2] = test system: Capan-2; type: functional, cell-based, Homo sapiens; settings: Homo sapiens, Capan-2;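 note: Capan-2 cell growth inhibition, read out with a viability assay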
Description: SANGER: Inhibition of human Capan-2 cell growth in a cell viability assay.

[3] = test system: COLO-824; type: functional, cell-based, Homo sapiens; settings: Homo sapiens, COLO-824
Description: SANGER: Inhibition of human COLO-824 cell growth in a cell viability assay.

[4] = test system: PC-3; type: functional, cell-based, Homo sapiens; settings: Homo sapiens, PC-3;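 note: cell viability assay measuring growth inhibition of PC-3 cells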
Description: SANGER: Inhibition of human PC-3 cell growth in a cell viability assay.

[5] = test system: A-431; type: functional, cell-based, Homo sapiens; settings: Homo sapiens, A-431;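 note: growth inhibition of A-431 cells, determined with a cell viability read-out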
Description: SANGER: Inhibition of human A431 cell growth in a cell viability assay.

[6] = test system: FaDu; type: functional, cell-based, Homo sapiens; settings: Homo sapiens, FaDu;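 note: cell viability readout of growth inhibition in FaDu cells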
Description: SANGER: Inhibition of human FADU cell growth in a cell viability assay.

[7] = test system: MPP-89; type: functional, cell-based, Homo sapiens; settings: Homo sapiens, MPP-89;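 note: growth inhibition of human MPP-89 cells, read out with a cell viability assay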
Description: SANGER: Inhibition of human MPP-89 cell growth in a cell viability assay.

[8] = test system: LCLC-97TM1; type: functional, cell-based, Homo sapiens; settings: Homo sapiens, LCLC-97TM1;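 note: cell viability assay measuring growth inhibition of human LCLC-97TM1 cells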
Description: SANGER: Inhibition of human LCLC-97TM1 cell growth in a cell viability assay.

[9] = test system: SW837; type: functional, cell-based, Homo sapiens; settings: Homo sapiens, SW837;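 note: growth inhibition of SW837 cells, determined with a cell viability assay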
Description: SANGER: Inhibition of human SW837 cell growth in a cell viability assay.

[10] = test system: LU-139; type: functional, cell-based; settings: Homo sapiens
Description: SANGER: Inhibition of human LU-139 cell growth in a cell viability assay.

[11] = test system: P12-Ichikawa; type: functional, cell-based; settings: Homo sapiens
[12] = test system: ONS-76; type: functional, cell-based, Homo sapiens; settings: Homo sapiens, ONS-76;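 note: growth inhibition of human ONS-76 cells, read out with a cell viability assay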
Description: SANGER: Inhibition of human ONS-76 cell growth in a cell viability assay.

[13] = test system: PA-1; type: functional, cell-based, Homo sapiens; settings: Homo sapiens, PA-1;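 note: IC50 for suppression of PA-1 cell proliferation, determined with a cell viability read-out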
Description: SANGER: Inhibition of human PA-1 cell growth in a cell viability assay.

[14] = test system: KU-19-19; type: functional, cell-based, Homo sapiens; settings: Homo sapiens, KU-19-19
Description: SANGER: Inhibition of human KU-19-19 cell growth in a cell viability assay.

[15] = test system: HT-3; type: functional, cell-based, Homo sapiens; settings: Homo sapiens, HT-3;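 note: growth inhibition measured with a cell viability readout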
Description: SANGER: Inhibition of human HT-3 cell growth in a cell viability assay.

[16] = test system: NCI-H2228; type: functional, cell-based, Homo sapiens; settings: Homo sapiens, NCI-H2228;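 note: growth inhibition of human NCI-H2228 cells, read out by a cell viability assay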
Description: SANGER: Inhibition of human NCI-H2228 cell growth in a cell viability assay.

[17] = test system: A-375; type: functional, cell-based, Homo sapiens; settings: Homo sapiens, A-375;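 note: growth inhibition of A375 cells, read out with a cell viability assay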
Description: SANGER: Inhibition of human A375 cell growth in a cell viability assay.

[18] = test system: HEL; type: functional, cell-based, Homo sapiens; settings: Homo sapiens, HEL;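 note: growth inhibition of HEL cells, read out with a cell viability assay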
Description: SANGER: Inhibition of human HEL cell growth in a cell viability assay.

[19] = test system: HEC-1; type: functional, cell-based, Homo sapiens; settings: Homo sapiens, HEC-1;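 note: growth inhibition of the cell line, read out with a cell viability assay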
Description: SANGER: Inhibition of human HEC-1 cell growth in a cell viability assay.

[20] = test system: Ca-Ski; type: functional, cell-based; settings: Homo sapiens;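 note: cell viability assay measuring inhibition of Ca-Ski cell growth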
Description: SANGER: Inhibition of human Ca-Ski cell growth in a cell viability assay.

[21] = test system: NOS-1; type: functional, cell-based, Homo sapiens; settings: Homo sapiens, NOS-1;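 note: growth inhibition of the human NOS-1 cell line, read out with a cell viability assay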
Description: SANGER: Inhibition of human NOS-1 cell growth in a cell viability assay.

[22] = test system: NCI-H650; type: functional, cell-based, Homo sapiens; settings: Homo sapiens, NCI-H650;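 note: growth inhibition of NCI-H650 cells, read out by a viability assay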
Description: SANGER: Inhibition of human NCI-H650 cell growth in a cell viability assay.

[23] = test system: J82; type: functional, cell-based; settings: Homo sapiens;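 note: growth inhibition of J82 cells, read out with a cell viability assay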
Description: SANGER: Inhibition of human J82 cell growth in a cell viability assay.

[24] = test system: NCI-H2126; type: functional, cell-based, Homo sapiens; settings: Homo sapiens, NCI-H2126;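 note: growth inhibition of the cancer cell line, determined with a cell viability readout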
Description: SANGER: Inhibition of human NCI-H2126 cell growth in a cell viability assay.

[25] = test system: SK-HEP1; type: functional, cell-based, Homo sapiens, SK-HEP-1; settings: Homo sapiens, SK-HEP1;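 note: cell viability readout used to quantify reduction in proliferation of human SK-HEP-1 cells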
Description: SANGER: Inhibition of human SK-HEP-1 cell growth in a cell viability assay.

[26] = test system: CW-2; type: functional, cell-based, Homo sapiens; settings: Homo sapiens, CW-2;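 note: growth inhibition of CW-2 cells, read out by a cell viability assay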
Description: SANGER: Inhibition of human CW-2 cell growth in a cell viability assay.

[27] = test system: LB2518-MEL; type: functional, cell-based, Homo sapiens; settings: Homo sapiens, LB2518-MEL;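 note: growth inhibition of human LB2518-MEL cells, measured with a cell viability assay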
Description: SANGER: Inhibition of human LB2518-MEL cell growth in a cell viability assay.

[28] = test system: GT3TKB; type: functional, cell-based, Homo sapiens; settings: Homo sapiens, GT3TKB;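 note: growth inhibition of the cell line, read out with a cell viability assay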
Description: SANGER: Inhibition of human GT3TKB cell growth in a cell viability assay.

[29] = test system: TE-9; type: functional, cell-based, Homo sapiens; settings: Homo sapiens, TE-9;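 note: cell growth inhibition, measured with a cell viability readout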
Description: SANGER: Inhibition of human TE-9 cell growth in a cell viability assay.

[30] = test system: LAMA-84; type: functional, cell-based; settings: Homo sapiens;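 note: growth inhibition of LAMA-84 cells, read out with a cell viability assay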
Description: SANGER: Inhibition of human LAMA-84 cell growth in a cell viability assay.

[31] = test system: HH; type: functional, cell-based; settings: Homo sapiens
Description: SANGER: Inhibition of human HH cell growth in a cell viability assay.

[32] = test system: Detroit 562; type: functional, cell-based, Homo sapiens; settings: Homo sapiens, Detroit 562;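 note: growth inhibition of human Detroit 562 cells, read out by a cell viability assay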
Description: SANGER: Inhibition of human Detroit562 cell growth in a cell viability assay.

[33] = test system: LS-513; type: functional, cell-based, Homo sapiens; settings: Homo sapiens, LS-513
Description: SANGER: Inhibition of human LS-513 cell growth in a cell viability assay.

[34] = test system: AM-38; type: functional, cell-based, Homo sapiens; settings: Homo sapiens, AM-38;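 note: growth inhibition of AM-38 cells of human origin, read out by a cell viability assay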
Description: SANGER: Inhibition of human AM-38 cell growth in a cell viability assay.

[35] = test system: NCI-H2087; type: functional, cell-based, Homo sapiens; settings: Homo sapiens, NCI-H2087;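 note: growth inhibition determined with a cell viability readout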
Description: SANGER: Inhibition of human NCI-H2087 cell growth in a cell viability assay.

[36] = test system: COLO-678; type: functional, cell-based, Homo sapiens; settings: Homo sapiens, COLO-678
Description: SANGER: Inhibition of human COLO-678 cell growth in a cell viability assay.

[37] = test system: SF-295; type: functional, cell-based, Homo sapiens; settings: Homo sapiens, SF-295; read-out: IC50;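 note: growth inhibition of SF-295 cells, read out with a cell viability assay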
Description: SANGER: Inhibition of human SF295 cell growth in a cell viability assay.

[38] = test system: NCI-H747; type: functional, cell-based; settings: Homo sapiens;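 note: growth inhibition of human NCI-H747 cells, read out by a cell viability assay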
Description: SANGER: Inhibition of human NCI-H747 cell growth in a cell viability assay.

[39] = test system: EM-2; type: functional, cell-based; settings: Homo sapiens;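 note: growth inhibition of EM-2 cells, read out with a cell viability assay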
Description: SANGER: Inhibition of human EM-2 cell growth in a cell viability assay.

[40] = test system: A3-KAW; type: functional, cell-based; settings: Homo sapiens;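 note: growth inhibition of human A3-KAW cells, read out with a cell viability assay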
Description: SANGER: Inhibition of human A3-KAW cell growth in a cell viability assay.

[41] = test system: HT; type: functional, cell-based; settings: Homo sapiens
Description: SANGER: Inhibition of human HT cell growth in a cell viability assay.

[42] = test system: TE-12; type: functional, cell-based; settings: Homo sapiens;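 note: growth inhibition of TE-12 cells, read out by a cell viability assay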
Description: SANGER: Inhibition of human TE-12 cell growth in a cell viability assay.

[43] = test system: MDA-MB-415; type: functional, cell-based; settings: Homo sapiens
[44] = test system: NEC8; type: functional, cell-based, Homo sapiens; settings: Homo sapiens, NEC8;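 note: growth inhibition of human NEC8 cells, read out by a cell viability assay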
Description: SANGER: Inhibition of human NEC8 cell growth in a cell viability assay.

[45] = test system: CAL-85-1; type: functional, cell-based; settings: Homo sapiens;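 note: growth inhibition of human CAL-85-1 cells, read out with a cell viability assay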
Description: SANGER: Inhibition of human CAL-85-1 cell growth in a cell viability assay.

[46] = test system: LS-411N; type: functional, cell-based, Homo sapiens; settings: Homo sapiens, LS-411N
[47] = test system: RERF-LC-MS; type: functional, cell-based, Homo sapiens; settings: Homo sapiens, RERF-LC-MS;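 note: growth inhibition of human RERF-LC-MS cells, read out by a cell viability assay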
Description: SANGER: Inhibition of human RERF-LC-MS cell growth in a cell viability assay.

[48] = test system: PSN1; type: functional, cell-based, Homo sapiens; settings: Homo sapiens, PSN1;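 note: suppression of growth of human PSN1 cells, read out by a cell viability assay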
Description: SANGER: Inhibition of human PSN1 cell growth in a cell viability assay.

[49] = test system: Ca9-22; type: functional, cell-based, Homo sapiens; settings: Homo sapiens, Ca9-22;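 note: growth inhibition of Ca9-22 cells, read out with a cell viability assay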
Description: SANGER: Inhibition of human Ca9-22 cell growth in a cell viability assay.

[50] = test system: HPAF-II; type: functional, cell-based, Homo sapiens; settings: Homo sapiens, HPAF-II;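 note: growth inhibition of HPAF-II cells, read out with a cell viability assay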
Description: SANGER: Inhibition of human HPAF-II cell growth in a cell viability assay.

[51] = test system: EW-13; type: functional, cell-based; settings: Homo sapiens;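 note: growth inhibition of EW-13 cells, read out with a cell viability assay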
Description: SANGER: Inhibition of human EW-13 cell growth in a cell viability assay.

[52] = test system: NCI-H720; type: functional, cell-based; settings: Homo sapiens;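 note: growth inhibition of human NCI-H720 cells determined by a cell viability assay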
Description: SANGER: Inhibition of human NCI-H720 cell growth in a cell viability assay.

CN(Cc1cnc2nc(N)nc(N)c2n1)c1ccc(C(=O)N[C@@H](CCC(=O)O)C(=O)O)cc1 [METHOTREXATE]
IC50 [1]: > 200 nM
IC50 [2]: > 200 nM
IC50 [3]: > 200 nM
IC50 [4]: > 200 nM
IC50 [5]: > 200 nM
IC50 [6]: > 200 nM
IC50 [7]: > 200 nM
IC50 [8]: > 200 nM
IC50 [9]: > 200 nM
IC50 [10]: > 200 nM
IC50 [11]: 41.3 nM
IC50 [12]: 63.8 nM
IC50 [13]: > 200 nM
IC50 [14]: > 200 nM
IC50 [15]: 69.4 nM
IC50 [16]: > 200 nM
IC50 [17]: > 200 nM
IC50 [18]: 11.5 nM
IC50 [19]: > 200 nM
IC50 [20]: > 200 nM
IC50 [21]: > 200 nM
IC50 [22]: > 200 nM
IC50 [23]: > 200 nM
IC50 [24]: > 200 nM
IC50 [25]: > 200 nM
IC50 [26]: > 200 nM
IC50 [27]: > 200 nM
IC50 [28]: > 200 nM
IC50 [29]: > 200 nM
IC50 [30]: 12.4 nM
IC50 [31]: 31.6 nM
IC50 [32]: > 200 nM
IC50 [33]: > 200 nM
IC50 [34]: > 200 nM
IC50 [35]: > 200 nM
IC50 [36]: > 200 nM
IC50 [37]: > 200 nM
IC50 [38]: > 200 nM
IC50 [39]: 57.1 nM
IC50 [40]: 8.92 nM
IC50 [41]: 134 nM
IC50 [42]: > 200 nM
IC50 [43]: > 200 nM
IC50 [44]: > 200 nM
IC50 [45]: > 200 nM
IC50 [46]: 118 nM
IC50 [47]: > 200 nM
IC50 [48]: > 200 nM
IC50 [49]: > 200 nM
IC50 [50]: > 200 nM
IC50 [51]: 72.3 nM

O=C(c1cc(Cc2n[nH]c(=O)c3ccccc23)ccc1F)N1CCN(C(=O)C2CC2)CC1 [OLAPARIB]
IC50 [1]: > 5000 nM
IC50 [2]: > 5000 nM
IC50 [3]: > 5000 nM
IC50 [4]: > 5000 nM
IC50 [5]: > 5000 nM
IC50 [6]: > 5000 nM
IC50 [7]: > 5000 nM
IC50 [8]: > 5000 nM
IC50 [9]: > 5000 nM
IC50 [10]: 4760 nM
IC50 [11]: > 5000 nM
IC50 [12]: > 5000 nM
IC50 [13]: 4250 nM
IC50 [14]: > 5000 nM
IC50 [15]: > 5000 nM
IC50 [16]: > 5000 nM
IC50 [17]: > 5000 nM
IC50 [18]: > 5000 nM
IC50 [19]: > 5000 nM
IC50 [20]: > 5000 nM
IC50 [21]: > 5000 nM
IC50 [22]: > 5000 nM
IC50 [23]: > 5000 nM
IC50 [24]: > 5000 nM
IC50 [25]: > 5000 nM
IC50 [26]: > 5000 nM
IC50 [27]: > 5000 nM
IC50 [28]: > 5000 nM
IC50 [29]: > 5000 nM
IC50 [30]: > 5000 nM
IC50 [31]: > 5000 nM
IC50 [32]: > 5000 nM
IC50 [33]: > 5000 nM
IC50 [34]: > 5000 nM
IC50 [35]: > 5000 nM
IC50 [36]: > 5000 nM
IC50 [37]: > 5000 nM
IC50 [38]: > 5000 nM
IC50 [39]: > 5000 nM
IC50 [40]: > 5000 nM
IC50 [41]: > 5000 nM
IC50 [42]: > 5000 nM
IC50 [43]: > 5000 nM
IC50 [44]: > 5000 nM
IC50 [45]: > 5000 nM
IC50 [46]: > 5000 nM
IC50 [47]: > 5000 nM
IC50 [52]: 2210 nM
IC50 [48]: > 5000 nM
IC50 [49]: > 5000 nM
IC50 [50]: > 5000 nM
IC50 [51]: > 5000 nM
